This is an account of results in patent publication US4698306A, “Process for producing peroxidase” (Takara Shuzo Co., Ltd., priority 1984, dated 1987).

The structures appear in SMILES notation. Read-outs that look alike come from different tables or passages of the source.

Assay [1] has as its target T1, peroxidase (Coprinopsis cinerea, UniProt P28314).
T1 sequence (P28314 21-363): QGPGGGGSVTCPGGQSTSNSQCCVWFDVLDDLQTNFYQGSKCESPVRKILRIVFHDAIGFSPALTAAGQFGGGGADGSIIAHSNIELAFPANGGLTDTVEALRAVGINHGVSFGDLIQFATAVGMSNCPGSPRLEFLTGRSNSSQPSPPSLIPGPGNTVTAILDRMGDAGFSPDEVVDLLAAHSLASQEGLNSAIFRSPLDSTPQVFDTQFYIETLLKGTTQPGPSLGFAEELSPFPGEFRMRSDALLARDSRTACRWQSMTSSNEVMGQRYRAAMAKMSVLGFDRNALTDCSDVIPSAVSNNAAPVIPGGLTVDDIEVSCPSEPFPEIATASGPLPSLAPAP
In words: Effects of inhibitors, metal ions and metal chelating agents on peroxidase activity. In kind it is biochemical, Coprinus macrorhizus K-1330. Particulars: for Relative activity: peroxidase, 1000 µM; for Relative activity / activity at 1000 µM: 1 min; for activity at 1000 µM: read-out: Relative activity.

Assay [2] addresses T1, peroxidase. Kind of assay: Specificity for hydrogen donors prepared by combining 4-AA with various compounds. The following applies: hydrogen donor combined with 4-AA, phenol = 100. In kind it is biochemical, Coprinus macrorhizus K-1330.
Assay [3] deals with T1, peroxidase. Kind of assay: Specificity for hydrogen donors prepared by combining MBTH with dimethylaniline, diethylaniline or EHMT. Particulars: hydrogen donor combined with MBTH; measured at 590 nm; 4-AA/phenol = 100. The assay is classed as biochemical, Coprinus macrorhizus K-1330.
The subject of assay [4] is Coprinus macrorhizus K-1330 (FERM BP-648). Kind of assay: Effect of iron salts on the production of peroxidase. The assay is classed as cell-based. The following applies: culture filtrate, 26° C., 5 to 10 days.
Where [5] appears, read: additive 1 mM, no addition = 100.

For the compound `[Cl][Hg][Cl]` [HgCl2], in assay [1], the “Inhibition of the enzyme” value is “inhibited” and the Relative activity stood at 6%.

`[Cl-].[Cl-].[Zn+2]` [ZnCl2]: the Relative activity in assay [1] is recorded as 85%.

In the case of `[Cl][Fe]([Cl])[Cl]` [FeCl3], in assay [1], the Relative activity came to 107%.

In the case of `Oc1c(Cl)cc(Cl)cc1Cl` [2,4,6-Trichlorophenol], the Relative activity in assay [2] (measured at 520 nm) was determined as 96%.

Take `O=S(=O)([O-])[O-].[Ni+2]` [NiSO4]: the Relative activity in assay [1] was determined as 92%.

As for `Oc1ccc(Cl)cc1Cl` [2,4-Dichlorophenol], in assay [2] (measured at 520 nm), the Relative activity is 115%.

Turning to `c1cnc2c(c1)ccc1cccnc12` [o-Phenanthroline], the activity at 1000 µM in assay [1] (setting [5]) came out at 88%.

Consider `CCN(CC)c1ccccc1` [Diethylaniline], for which the Relative activity in assay [2] (measured at 550 nm) and in assay [3] was 49% throughout.

With `NC(N)=S` [Thiourea], in assay [1], the “Inhibition of the enzyme” value is “inhibited” and the activity at 1000 µM is 57%.

`c1ccc(-c2ccccn2)nc1` [α,α'-Dipyridyl]: the activity at 1000 µM in assay [1] was 103%.

For `Oc1ccc(O)cc1` [Hydroquinone], in assay [2] (measured at 500 nm), the Relative activity is 10%.

For `O=C(O)CI` [Iodoacetic acid], the activity at 1000 µM in assay [1] was 100%.

In the case of `O=C(O)CN(CCN(CC(=O)O)CC(=O)O)CC(=O)O` [EDTA], in assay [1], the activity at 1000 µM was 97%.

Turning to `CN(C)c1ccccc1` [Dimethylaniline], the Relative activity in assay [2] (measured at 550 nm) is given as 21%; in assay [3], 50%.

Regarding `N[C@@H](CS)C(=O)O` [L-cysteine], the activity at 1000 µM in assay [1] (setting [5]) amounted to 105%.

Regarding `[Cl-].[Cl-].[Co+2]` [CoCl2], the Relative activity in assay [1] stood at 98%.

As to `O.O.O.O.O.O.O.O=S(=O)([O-])[O-].[Fe+2]` [FeSO4.7H2 O], the “Peroxidase activity (maximum activity)” value in assay [4] (0.04 % FeSO4.7H2O added to medium) was found to be 28.0 unit/ml; in assay [4] (0.08 % FeSO4.7H2O added to medium), 46.4 unit/ml; in assay [4] (0.12 % FeSO4.7H2O added to medium) it was 75.5 unit/ml; in assay [4] (0.16 % FeSO4.7H2O added to medium), 80.2 unit/ml; in assay [4] (0.20 % FeSO4.7H2O added to medium) it was 66.0 unit/ml; in assay [4] (0.24 % FeSO4.7H2O added to medium), 36.8 unit/ml. The “Peroxidase activity (maximum activity)” value in assay [4] (0.32 % FeSO4.7H2O added to medium) is 17.0 unit/ml.

For the compound `Oc1cccc2ccccc12` [α-Naphthol], the Relative activity in assay [2] (measured at 500 nm) is 18%.

For `[F-].[Na+]` [Sodium fluoride], the Relative activity in assay [1] worked out at 103%.

In the case of `[Ba+2].[Cl-].[Cl-]` [BaCl2], the Relative activity in assay [1] was determined as 96%.

Consider `Oc1c(Cl)cccc1Cl` [2,6-Dichlorophenol], for which the Relative activity in assay [2] (measured at 520 nm) is 154%.

With `O=S(=O)([O-])[O-].[Cu+2]` [CuSO4], the Relative activity in assay [1] is reported as 105%.

In the case of `Oc1ccccc1` [Phenol], the Relative activity in assay [2] (measured at 500 nm) is 100%.

`CCN(CCO)c1cccc(C)c1` [EHMT, N-ethyl-N-hydroxyethyl-m-toluidine]: the figures for the Relative activity in assay [2] (measured at 550 nm) and in assay [3] were 62% and 41%, respectively.

Regarding `Oc1cccc(O)c1` [Resorcinol], the Relative activity in assay [2] (measured at 500 nm) was determined as 10%.

Turning to `O=S(=O)(F)Cc1ccccc1` [PMSF, Phenylmethylsulfonyl fluoride], in assay [1], the Relative activity amounted to 98%.

For the compound `Oc1ccccc1O` [Pyrocatechol], the Relative activity in assay [2] (measured at 500 nm) came out at 58%.

In the case of `O=C(O)c1cc[c]([Hg][Cl])cc1` [PCMB, p-Chloromercuribenzoic acid], the Relative activity in assay [1] is listed as 98%.

For the compound `[Cl][Sn][Cl]` [SnCl2], in assay [1], the Relative activity is listed as 92%.

With `[Cl][Mn][Cl]` [MnCl2], the Relative activity in assay [1] was 86%.

Regarding `[N-]=[N+]=[N-]` [Sodium azide], in assay [1], the “Inhibition of the enzyme” value was “inhibited”.

For the compound `O[C@H](CS)[C@H](O)CS` (racemic) [Dithiothreitol], the activity at 1000 µM in assay [1] (setting [5]) was 95%.

Regarding `Oc1ccc(Br)cc1Br` [2,4-Dibromophenol], the Relative activity in assay [2] (measured at 520 nm) was 47%.
